Consider 4 substances from patent US20220226484A1, “THERAPEUTIC PEPTIDES” (COHBAR, INC., priority 2019, published 2022).

Non-standard residues stand in square brackets, D forms with d. Primed or numbered codes have the meaning given here. No end group written: not given here. PEG12′ = not defined here

One test has as its system H4IIE Rat Hepatoma Cells. Nature of the test: Insulin-dependent effect on glucose production by cultured rat liver cells. It counts as cell-based. The conditions noted are these: 24 hour; for Glucose Levels, MEAN % Control, +Insulin: peptide 10 μM + insulin 800 pM, percent of insulin (800 pM); for Glucose Levels, MEAN % Control, −Insulin: peptide 10 μM alone, percent of untreated control cells. Here is the method:
The effect of the peptides on glucose production was assessed in the absence and presence of insulin using an assay of glucose levels in cultured cells such as rat hepatocytes. Peptides were initially prepared as 10 mM stock in DMSO and used at a final concentration of 10 μM (0.1% DMSO). Insulin (800 pM) was used as a partial inhibitor of glucose production. H4-IIE cells purchased from ATCC (Manassas, Va.) were seeded at 100,000 cells/well in standard medium (DMEM/high glucose+10% FBS+1× Glutamax+antibiotics) on 96-well plates and allowed to adhere overnight at 37° C. in a humidified atmosphere of 5% CO2/95% air. Approximately 24 h after seeding, the medium was removed, cells rinsed with glucose free DMEM, and Glucose Production Medium (glucose free DMEM+2 mM sodium pyruvate+10 mM sodium lactate) was added. The cultures were placed at 37° C. in a humidified atmosphere of 5% CO2/95% air overnight. The next morning, the medium was removed and fresh Glucose Production Medium containing compounds was added. Insulin at 800 pM was added to control wells. Peptides (10 μM) in the absence or presence of insulin (800 pM) were added to test wells. Cells in the presence of compounds were placed at 37° C. in a humidified atmosphere of 5% CO2/95% air overnight. After 24 hour incubation, conditioned medium from each well was transferred to a fresh 96-well plate for quantitation of glucose content. Quantitation of glucose levels was determined using an Amplex Red Glucose Assay kit (Abacm; Cambridge, Mass.) according to the manufacturer's instructions using a Cytation 3 plate reader at 570 nm (BioTek, Winooski, Vt.). Absorbance values were expressed as a percent of untreated control cells (maximum glucose production) for peptide alone samples or insulin (800 pM) for peptides in the presence of insulin (800 pM. Glucose levels for insulin (800 pM) treatment were ˜80-90% of the untreated control values. The results are reported in Table 15.

Another test relates to 3T3-L1 Mouse Adipocytes. Nature of the test: Insulin-dependent effect on free fatty acid levels in cultured mouse adipocytes. It is filed as cell-based. The conditions noted are these: 3 hours; for Free Fatty Acid Levels, MEAN % ISO, +Insulin: peptide 10 μM + insulin 0.25 nM, percent of isoproterenol (0.1 nM)+insulin (0.25 nM); for Free Fatty Acid Levels, MEAN % ISO, −Insulin: peptide 10 μM alone, percent of isoproterenol (0.1 nM) treated control cells. Here is the method: The effect of the peptides on fatty acid metabolism was assessed in the absence and presence of insulin using an assay of free fatty acid levels in cultured cells such as mouse adipocytes. Peptides were initially prepared as 10 mM stock in DMSO and used at a final concentration of 10 μM (0.1% DMSO). […] Insulin (0.25 nM) was used as a partial inhibitor and insulin (10 nM) was used as a potent inhibitor of isoproterenol stimulated fatty acid production. Mouse 3T3-L1 cells purchased from ZenBio (Research Triangle Park, N.C.) were seeded at 3,000 cells per well on 96-well plates in Pre-Adipocyte Medium (Zen-Bio) and grown to confluence at 37° C. in a humidified atmosphere of 5% CO2/95% air. Two days after confluence, cells were placed in Adipocyte Differentiation Medium (Zen-Bio) and cultured for three additional days at 37° C. in a humidified atmosphere of 5% CO2/95% air. The culture medium was then partially replaced with Adipocyte Maintenance Medium (Zen-Bio) and the cells maintained at 37° C. in a humidified atmosphere of 5% CO2/95% air with partial medium replacement every other day. At 12 day of differentiation, 96-well cultures were transferred to Adipocyte Maintenance Medium without insulin and placed at 37° C. in a humidified atmosphere of 5% CO2/95% air for two days. Following this incubation period, the medium was removed from 14 day differentiated cultures and replaced with Assay Buffer (Zen-Bio) containing peptides (10 μM), insulin (0.25 nM or 10 nM), isoproterenol (0.1 nM) as appropriate. […] isoproterenol was added to all wells except untreated controls. Insulin at 0.1 nM and 10 nM was added to control wells. Peptides (10 μM) in the absence or presence of insulin (0.25 nM) were added to test wells. Cells in the presence of compounds were placed at 37° C. in a humidified atmosphere of 5% CO2/95% air for 3 hours. At the end of the final 3 h incubation, conditioned assay buffer was removed from each well and place in a fresh 96-well plate for quantitation of free fatty acid content. Free fatty acid concentrations in the assay buffer samples were determined using a Free Fatty Acid Assay kit (Zen-Bio) according to the manufacturer's instructions using a Cytation 3 plate reader at 540 nm (BioTek, Winooski, VD. Absorbance values were corrected for untreated background and expressed as a percent of isoproterenol (0.1 nM) treated control cells for peptides alone or isoproterenol (0.1 nM)+insulin (0.25 nM) for peptides in presence of insulin (0.25 nM). Treatment with isoproterenol […] alone was used as the free fatty acid level stimulatory control. The relative standard deviation of the isoproterenol control was <10%. […] Free fatty acid levels for insulin (10 nM) treatment were <5% of the isoproterenol control value. Free fatty acid levels for insulin (0.25 nM) treatment were 60-80% of the isoproterenol control value.

As to “RVIRMCLNNGLNGEL(dA)G (RVIRMCLNNGLNGEL[dA]G) [SEQ ID NO: 22]”, in the test on H4IIE Rat Hepatoma Cells, the “Glucose Levels, MEAN % Control, +Insulin” value is listed as 0.5% and the “Glucose Levels, MEAN % Control, −Insulin” value was -0.4%. Besides, in the test on 3T3-L1 Mouse Adipocytes, the “Free Fatty Acid Levels, MEAN % ISO, +Insulin” value is listed as 25.3% and the “Free Fatty Acid Levels, MEAN % ISO, −Insulin” value is given as 93.6%.

For “RVIRMCLNVGLEGEL(dA) (RVIRMCLNVGLEGEL[dA]) [SEQ ID NO: 19]”, in the test with H4IIE Rat Hepatoma Cells, the “Glucose Levels, MEAN % Control, +Insulin” value is 3.7% and the “Glucose Levels, MEAN % Control, −Insulin” value stood at 12.5%. Moreover, in the test on 3T3-L1 Mouse Adipocytes, the “Free Fatty Acid Levels, MEAN % ISO, +Insulin” value was 24.7% and the “Free Fatty Acid Levels, MEAN % ISO, −Insulin” value came to 67.1%.

Take RVIRMCLNVGLNGE [SEQ ID NO: 21]: in the test on H4IIE Rat Hepatoma Cells, the “Glucose Levels, MEAN % Control, +Insulin” value amounted to 78.2% and the “Glucose Levels, MEAN % Control, −Insulin” value is reported as 102%. In the test with 3T3-L1 Mouse Adipocytes, the “Free Fatty Acid Levels, MEAN % ISO, +Insulin” value worked out at 40.0% and the “Free Fatty Acid Levels, MEAN % ISO, −Insulin” value is 102%.

For the substance “{PEG12}KRVIRMCLNVGLLGEL(dA)E ([PEG12′]KRVIRMCLNVGLLGEL[dA]E) [SEQ ID NO: 18]”, in the test on H4IIE Rat Hepatoma Cells, the “Glucose Levels, MEAN % Control, +Insulin” value turned out to be 95.4% and the “Glucose Levels, MEAN % Control, −Insulin” value was 101%. In the test with 3T3-L1 Mouse Adipocytes, the “Free Fatty Acid Levels, MEAN % ISO, +Insulin” value came out at 93.6% and the “Free Fatty Acid Levels, MEAN % ISO, −Insulin” value is 107%.
